Paper PMC3402541, “Guanidylation and Tail Effects in Cationic Antimicrobial Lipopeptoids” (PLoS ONE, 2012)
Converted amounts (≈) assume the structure as drawn.

How the values were obtained:
[1] = tested on: MRSA ATCC 33592; assay type: cell-based, methicillin-resistant S. aureus; details: ATCC 33592, 24 h
Protocol: (§1) Antimicrobial activity of the purified lipopeptoids was determined without replication against a panel of clinically relevant and standard reference bacterial strains according to CLSI macrobroth standards. Stock solutions at 512 µg/mL were prepared in water, with DMSO as needed, and testing was performed in glass test tubes using Muller-Hinton broth and bacteria adjusted to 5 × 10^5 CFU/mL. Bacteria were incubated with the lipopeptoid of interest for 24 hr at 37°C prior to reading.
(§2) The bacteria Staphylococcus aureus ATCC 29213, methicillin-resistant S. aureus ATCC 33592, Staphylococcus epidermidis ATCC 14990, Enterococcus faecalis ATCC 29212, E. faecium ATCC 27270, Streptococcus pneumoniae ATCC 49619, Escherichia coli ATCC 25922, Pseudomonas aeruginosa ATCC 27853, and Klebsiella pneumoniae ATCC 13883 were acquired from the American Type Culture Collection (ATCC) and used as quality controls. The clinical strains methicillin-resistant S. epidermidis (MRSE) CAN-ICU 61589, E. coli CAN-ICU 61714, E. coli CAN-ICU 63074, P. aeruginosa CAN-ICU 62308, Stenotrophomonas maltophilia CAN-ICU 62584, Acinetobacter baumannii CAN-ICU 63169 were obtained from hospitals across Canada as part of the CAN-ICU studies, while methicillin-susceptible S. epidermidis (MSSE) 81388 was obtained from the 2008 CANWARD study.
(§3) After subculturing the relevant bacteria twice from frozen stock, in vitro activities of the antimicrobials were determined by macrobroth dilution methodology in accordance with the Clinical and Laboratory Standards Institute (CLSI) guidelines (3). The MICs were determined using glass test tubes (2 mL/tube) containing doubling antimicrobial dilutions of cation adjusted Mueller-Hinton broth inoculated to achieve a final concentration of approximately 5 x 10^5 CFU/mL, incubated in ambient air for 24 hr prior to reading. Colony counts were performed periodically to confirm inocula. The ATCC organisms […] ATCC 49619, Staphylococcus aureus ATCC 29213, Enterococcus faecalis ATCC 29212, Escherichia coli ATCC 25922, and Pseudomonas aeruginosa ATCC 27853 were used as quality control and to allow easy comparison to previously tested antimicrobials. Each test in this series was performed without replication. In our experience with cationic amphiphiles the results are accurate to within a single doubling.

[2] = tested on: MSSE 81388 CANWARD 2008; assay type: cell-based, methicillin-susceptible S. epidermidis; details: 24 h
Protocol: as §1, §2, §3

[3] = tested on: K.pneumoniae ATCC 13883; assay type: cell-based, Klebsiella pneumoniae; details: ATCC 13883, 24 h
Protocol: as §1, §2, §3

[4] = tested on: E. faecalis ATCC 29212; assay type: cell-based, Enterococcus faecalis; details: ATCC 29212, 24 h
Protocol: as §1, §2, §3

[5] = tested on: E. faecium ATCC 27270; assay type: cell-based; details: ATCC 27270, 24 h
Protocol: as §1, §2, §3

[6] = tested on: P.aeruginosa CAN-ICU 62308; assay type: cell-based, Pseudomonas aeruginosa; details: CAN-ICU 62308, 24 h
Protocol: as §1, §2, §3

[7] = tested on: P.aeruginosa ATCC 27853; assay type: cell-based, Pseudomonas aeruginosa; details: ATCC 27853, 24 h
Protocol: as §1, §2, §3

[8] = tested on: MRSE CAN-ICU 61589; assay type: cell-based, methicillin-resistant S. epidermidis; details: CAN-ICU 61589, 24 h
Protocol: as §1, §2, §3

[9] = tested on: S. maltophilia CAN-ICU 62584; assay type: cell-based, Stenotrophomonas maltophilia; details: CAN-ICU 62584, 24 h
Protocol: as §1, §2, §3

[10] = tested on: A. baumannii CAN-ICU 63169; assay type: cell-based, Acinetobacter baumannii; details: CAN-ICU 63169, 24 h
Protocol: as §1, §2, §3

[11] = tested on: S.pneumoniae ATCC 49619; assay type: cell-based, Streptococcus pneumoniae; details: ATCC 49619, 24 h
Protocol: as §1, §2, §3

[12] = tested on: S.aureus ATCC 29213; assay type: cell-based, Staphylococcus aureus; details: ATCC 29213, 24 h
Protocol: as §1, §2, §3

[13] = tested on: E.coli ATCC 25922; assay type: cell-based, Escherichia coli; details: ATCC 25922, 24 h
Protocol: as §1, §2, §3

[14] = tested on: E.coli CAN-ICU 63074; assay type: cell-based, Escherichia coli; details: CAN-ICU 63074, 24 h
Protocol: as §1, §2, §3

[15] = tested on: E.coli CAN-ICU 61714; assay type: cell-based, Escherichia coli; details: CAN-ICU 61714, 24 h
Protocol: as §1, §2, §3

[16] = tested on: ovine erythrocytes; assay: Haemolytic assay; assay type: cell-based, sheep; details: ovine erythrocytes in Tris buffered saline, 30 minutes, absorbance of supernatant at 540 nm
Protocol: Mammalian cell toxicity was determined by measuring lysis of ovine erythrocytes, a standard model for human cell toxicity. Cells were prewashed with Tris buffered saline and then incubated with a variety of lipopeptoid concentrations for 30 minutes. Following centrifugation, lysis was evaluated by testing the absorbance of the solution at 540 nm, with 0.5% NH4OH used as a positive control.
Toxicity to mammalian cells was determined using a sheep red blood cell (erythrocyte) haemolytic assay (4). Erythrocytes were washed and resuspended in Tris buffered saline prior to use, at a concentration of 1.46 - 4.5 x 10^9 cells/mL (on average 3.08 x 10^9 cells/mL). The cell suspension was diluted with varying concentrations of antimicrobials, from 50 μg/mL to 1 mg/mL and incubated for thirty minutes (final erythrocyte concentration 4.08 x 10^8 cells/mL). The samples were centrifuged following treatment and the absorbance of the supernatant was measured at 540 nm. A solution of 0.5% […] was used as a positive control, with normal buffered solution as the negative control. The toxicity was assessed as a function of percent haemolysis.

| Structure (SMILES) | MIC MRSA [1] [µg/mL] | MIC MRSA in the presence of 4% bovine serum albumin [1] [µg/mL] | MIC MSSE [2] [µg/mL] | MIC MSSE in the presence of 4% bovine serum albumin [2] [µg/mL] | MIC K.pneumoniae [3] [µg/mL] | MIC K.pneumoniae in the presence of 4% bovine serum albumin [3] [µg/mL] | MIC E. faecalis [4] [µg/mL] | MIC E. faecalis in the presence of 4% bovine serum albumin [4] [µg/mL] | MIC E. faecium [5] [µg/mL] | MIC E. faecium in the presence of 4% bovine serum albumin [5] [µg/mL] | MIC P.aeruginosa [6] [µg/mL] | MIC P.aeruginosa in the presence of 4% bovine serum albumin [6] [µg/mL] | MIC P.aeruginosa [7] [µg/mL] | MIC P.aeruginosa in the presence of 4% bovine serum albumin [7] [µg/mL] | MIC MRSE [8] [µg/mL] | MIC MRSE in the presence of 4% bovine serum albumin [8] [µg/mL] | MIC S. maltophilia [9] [µg/mL] | MIC S. maltophilia in the presence of 4% bovine serum albumin [9] [µg/mL] | MIC A. baumannii [10] [µg/mL] | MIC A. baumannii in the presence of 4% bovine serum albumin [10] [µg/mL] | other results |
| --- | --- | --- | --- | --- | --- | --- | --- | --- | --- | --- | --- | --- | --- | --- | --- | --- | --- | --- | --- | --- | --- |
| CCCCCCCCCCCCCCCC(=O)N(CCCCNC(=N)N)CC(=O)N(CCCCNC(=N)N)CC(=O)N(CCCCNC(=N)N)CC(N)=O [C16-NhargNhargNharg] | 16 (≈ 20.9 µM) | 512 | 8 (≈ 10.4 µM) | 256 | 256 (≈ 334 µM) | >512 | 16 (≈ 20.9 µM) | 512 | 16 (≈ 20.9 µM) | 512 | 64 (≈ 83.5 µM) | >512 | 64 (≈ 83.5 µM) | >512 | 8 (≈ 10.4 µM) | 512 | 128 (≈ 167 µM) | >512 | 128 (≈ 167 µM) | >512 | MIC S.pneumoniae [11]: 64 µg/mL (≈ 83.5 µM); MIC S.aureus [12]: 8 µg/mL (≈ 10.4 µM); MIC S.aureus in the presence of 4% bovine serum albumin [12]: 512 µg/mL; MIC E.coli [13]: 16 µg/mL (≈ 20.9 µM); MIC E.coli in the presence of 4% bovine serum albumin [13]: 512 µg/mL; MIC E.coli [14]: 32 µg/mL (≈ 41.8 µM); MIC E.coli in the presence of 4% bovine serum albumin [14]: >512 µg/mL; MIC E.coli [15]: 32 µg/mL (≈ 41.8 µM); MIC E.coli in the presence of 4% bovine serum albumin [15]: 512 µg/mL; Percent haemolysis at 100µg/mL of compound [16]: 30.80% |
| CCCCCCCCCCCCCCCC(=O)N(CCCCN)CC(=O)N(CCCCN)CC(=O)N(CCCCN)CC(N)=O [C16-NlysNlysNlys] | 32 (≈ 50 µM) | >512 | 8 (≈ 12.5 µM) | 512 | 128 (≈ 200 µM) | >512 | 32 (≈ 50 µM) | >512 | 32 (≈ 50 µM) | >512 | 128 (≈ 200 µM) | >512 | 128 (≈ 200 µM) | >512 | 8 (≈ 12.5 µM) | 512 | 256 (≈ 400 µM) | >512 | 256 (≈ 400 µM) | >512 | MIC S.pneumoniae [11]: 128 µg/mL (≈ 200 µM); MIC S.pneumoniae in the presence of 4% bovine serum albumin [11]: 512 µg/mL; MIC S.aureus [12]: 16 µg/mL (≈ 25 µM); MIC S.aureus in the presence of 4% bovine serum albumin [12]: 512 µg/mL; MIC E.coli [13]: 32 µg/mL (≈ 50 µM); MIC E.coli in the presence of 4% bovine serum albumin [13]: >512 µg/mL; MIC E.coli [14]: 64 µg/mL (≈ 100 µM); MIC E.coli in the presence of 4% bovine serum albumin [14]: >512 µg/mL; MIC E.coli [15]: 64 µg/mL (≈ 100 µM); MIC E.coli in the presence of 4% bovine serum albumin [15]: >512 µg/mL; Percent haemolysis at 100µg/mL of compound [16]: 67.69% |
